Some test systems named below: DU-145 prostate; SF-268 CNS; T-47D breast; A549 NSCLC; HCT-116 colon; SNB-75 CNS; UO-31 renal; UACC-62 melanoma; NCI-H522 lung; SW-620 colon.
What all share (assay): NCI tumour cell line growth inhibition, 48 h

“And” between values parts separate entries of the source, which are not always exact repeats. Identical values can stand only once.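 Dose response: 5 concentrations. Exposure: 48 h. Format: 96-well plates. Endpoint: linear interpolation; highest concentration if not reached. At the GI50, growth is halved. TGI denotes the concentration required for complete inhibition of growth.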

The values below come from PubChem BioAssay (NCI).

Regarding `N#Cc1nc2c(S(=O)(=O)c3ccc(Cl)cc3)c(N)n(Nc3cccc(Cl)c3)c2nc1C#N`, the TGI in the test on DU-145 prostate is > 100 µM; in the test on SF-268 CNS, > 100 µM; in the test with A549 NSCLC, > 100 µM; in the test with SNB-75 CNS, 0.059 µM; in the test on UO-31 renal, > 100 µM; in the test on UACC-62 melanoma, 0.336 µM. For the same compound, the TGI was found to be 0.449 µM in the test with NCI-H522 lung and 0.0733 µM in the test on SW-620 colon. For the same compound, the GI50 in the test on T-47D breast was 0.0258 µM; in the test with HCT-116 colon, 0.015 µM; with SNB-75 CNS, 0.0115 µM; with UO-31 renal it was 0.333 µM; in the test on UACC-62 melanoma, 0.115 µM; in the test with NCI-H522 lung, 0.11 µM. Also, the GI50 with SW-620 colon was 0.014 µM.

Consider `CCCCCOc1ccc(/C=N/Nc2cc(C)nc3ccc(Cl)cc23)cc1`, for which the GI50 in the test on DU-145 prostate was 1.88 µM; with SF-268 CNS, 2.23 µM; in the test with T-47D breast it was 1.76 µM; with A549 NSCLC, 1.9 µM; in the test on HCT-116 colon, 1.04 µM; with SNB-75 CNS it was 1.63 µM. Also, the GI50 was 1.56 µM with UO-31 renal, 1.68 µM in the test on UACC-62 melanoma, 1.63 µM with NCI-H522 lung and 1.73 µM in the test with SW-620 colon. Also, the TGI in the test on DU-145 prostate is 3.7 µM; in the test with SF-268 CNS, 4.46 µM; with T-47D breast, 3.71 µM; with A549 NSCLC it was 3.52 µM; in the test with HCT-116 colon it was 2.29 µM; in the test with SNB-75 CNS it was 3.22 µM. Moreover, the TGI with UO-31 renal came to 2.93 µM; in the test on UACC-62 melanoma it was 3.15 µM; with NCI-H522 lung it was 3.08 µM; in the test on SW-620 colon, 3.53 µM.

Regarding `N#CC1(c2ccc(NC(=O)c3cccnc3NCc3ccncc3)cc2)CCCC1`, the GI50 with DU-145 prostate is 18.8 µM; in the test with SF-268 CNS it was 27 µM; in the test on T-47D breast, 4.15 µM; with A549 NSCLC, 17.3 µM; in the test on HCT-116 colon it was 12.1 µM; in the test on SNB-75 CNS it was 8.08 µM. Further, the GI50 is 12.6 µM with UO-31 renal, 8.02 µM in the test on UACC-62 melanoma, 7.6 µM in the test on NCI-H522 lung and 24.2 µM in the test with SW-620 colon. Also, the TGI was > 100 µM in the test with DU-145 prostate; > 100 µM in the test with SF-268 CNS; 49.7 µM with T-47D breast; > 79.7 µM in the test with A549 NSCLC; 32 µM in the test on HCT-116 colon; 56.7 µM in the test with SNB-75 CNS. Further, the TGI amounted to 60.7 µM in the test on UO-31 renal, 23.9 µM with UACC-62 melanoma, 35.1 µM in the test on NCI-H522 lung and 72.1 µM with SW-620 colon.

`COc1ccc2c(N)ncc(C#Cc3cc(C(=O)Nc4ccc(CN5CCN(C)CC5)c(C(F)(F)F)c4)cnc3C)c2c1`: the GI50 in the test on DU-145 prostate was 0.419 µM; in the test with SF-268 CNS, 1.21 µM; with T-47D breast it was 13.5 µM; in the test on A549 NSCLC, 0.576 µM; in the test on HCT-116 colon, 0.483 µM; in the test on SNB-75 CNS, 0.729 µM. Besides, the GI50 was 0.632 µM in the test on UO-31 renal, 1.3 µM in the test with UACC-62 melanoma, 0.571 µM in the test on NCI-H522 lung and 0.578 µM in the test on SW-620 colon. Also, the TGI in the test with DU-145 prostate was 0.874 µM; with SF-268 CNS it was 4.78 µM; in the test with T-47D breast it was 25.4 µM; with A549 NSCLC, 1.28 µM; in the test on HCT-116 colon it was 1.05 µM; in the test with SNB-75 CNS it was 4.38 µM. For the same compound, the TGI in the test on UO-31 renal was 2.28 µM; with UACC-62 melanoma, 5.92 µM; with NCI-H522 lung, 1.2 µM; in the test on SW-620 colon it was 1.3 µM.

Turning to `C[C@]12CC[C@H]3[C@@H](CCC4=CC(=O)CC[C@@]43C)[C@@H]1CC[C@@H]2c1csc(N)n1`, the GI50 was 6.72 µM in the test with DU-145 prostate; 5.07 µM in the test with SF-268 CNS; 2.26 µM in the test with T-47D breast; 5.77 µM in the test with A549 NSCLC; 3.15 µM with HCT-116 colon; 8.62 µM with SNB-75 CNS. The GI50 was 2.46 µM in the test on UO-31 renal, 2.68 µM in the test with UACC-62 melanoma, 7.18 µM in the test on NCI-H522 lung and 5.28 µM in the test with SW-620 colon. The TGI was found to be 24.5 µM in the test on DU-145 prostate; 24.1 µM with SF-268 CNS; 18.8 µM with T-47D breast; 31.6 µM with A549 NSCLC; 15.3 µM in the test on HCT-116 colon; 24.2 µM in the test on SNB-75 CNS. Moreover, the TGI with UO-31 renal is 11.2 µM; in the test with UACC-62 melanoma it was 17.8 µM; in the test on NCI-H522 lung, 24.9 µM; in the test on SW-620 colon, 20.8 µM.

As for `COC1N(C2CC(O)C(CO)O2)C(=O)NC(=O)C1(F)Br` (stereo not drawn), the TGI is > 100 µM with DU-145 prostate; 50 µM and > 100 µM in the test with SF-268 CNS; > 100 µM in the test on T-47D breast; 50 µM and > 100 µM in the test with A549 NSCLC; 50 µM and > 100 µM with HCT-116 colon; 50 µM and 81.6 µM with SNB-75 CNS. For the same compound, the TGI was > 100 µM in the test on UO-31 renal; > 100 µM in the test with UACC-62 melanoma; 50 µM and > 70 µM in the test with NCI-H522 lung; 50 µM and > 100 µM with SW-620 colon. Besides, the GI50 in the test with SF-268 CNS was 18.2 µM; in the test with A549 NSCLC, 3.22 µM; with HCT-116 colon it was 12.6 µM; with SNB-75 CNS, 7.44 µM; in the test with UO-31 renal, > 50 µM; in the test on UACC-62 melanoma it was > 50 µM. Also, the GI50 in the test on NCI-H522 lung is 22.4 µM; in the test with SW-620 colon, 27.7 µM.

For the compound `O=C(NCCNCCO)c1ccc2c(c1)oc1cc3ccccc3c(=O)n12`, the GI50 was 41.2 µM in the test with DU-145 prostate; 19.6 µM in the test with SF-268 CNS; 24.7 µM in the test on T-47D breast; 16.2 µM with A549 NSCLC; 22.8 µM in the test on HCT-116 colon; 15 µM with SNB-75 CNS. The GI50 with UO-31 renal is 16.6 µM; in the test on UACC-62 melanoma, > 50 µM; in the test on NCI-H522 lung, 18.2 µM; in the test on SW-620 colon, 18.1 µM. In addition, the TGI with DU-145 prostate is > 50 µM; in the test with SF-268 CNS it was > 50 µM; in the test with T-47D breast, > 50 µM; in the test on A549 NSCLC, > 50 µM; in the test with HCT-116 colon it was > 50 µM; in the test on SNB-75 CNS, 44.4 µM. Moreover, the TGI with UO-31 renal, with UACC-62 melanoma, with NCI-H522 lung and in the test on SW-620 colon was > 50 µM each time.
